≈ marks a conversion by molar mass, not a printed value. Entries after “also recorded” stand apart in the source; their conditions may differ.
Key:
[1] = system: S. haemolyticus TUH 51-07 biofilm; experiment: Biofilm metabolic activity, Alamar blue reduction; type: cell-based, Staphylococcus haemolyticus; details: 500 mg/L, 24 h
Experimental: (§1) Biofilm formation was induced in 96-well flat bottom microtitre plates (Nunclon Surface, NUNC, Roskilde, Denmark). First, overnight cultures were diluted 1:100 in MHIIB (S. epidermidis and S. haemolyticus) or tryptic soy broth (TSB) with 5% glucose and 5% NaCl (S. aureus). Two hundred of this bacterial suspension (10^7 cfu/ml) was added to each well and incubated for 24 h at 37° C. After 24 h the wells were carefully washed twice with phosphate-buffered saline (PBS) to remove planktonic bacteria. The washing procedure was evaluated by measuring metabolic activity of the PBS with the Alamar blue method, described in detail below. […]
(§2) We quantified the metabolic activity of biofilm with a slightly modified method previously described by Pettit et al. in Antimicrob. […] After 1 h incubation at 37° C., absorbance was recorded at 570 and 600 nm using Versamax tuneable microplate reader (Molecular Devices, Sunnyvale, Calif., USA). […]
(§3) The percent reduction of AB was calculated according to the manufacturer's formula (Invitrogen, Carlsbad, USA). We calculated mean and standard deviations (SD) of all repeated measurements. Pearson's two-tailed correlation between the AB method and the CV method (FIG. 2) was calculated on averaged data from all 6 staphylococcal strains. […]

[2] = system: Staphylococcus aureus PIA90; experiment: microbe, parasite or virus in culture; details: planktonic, SA PIA90
Experimental: (§4) Bacteria were grown overnight at 37° C. in cation adjusted Mueller-Hinton II Broth (MHIIB).
(§5) We determined the MICs of oxacillin, gentamicin, tetracycline, vancomycin and linezolid using E-test (AB Biodisk, Solna, Sweden) and MICs of rifampicin using broth microdilution assay. Breakpoints were interpreted according to EUCAST criteria. […] All 3 SAMPs are tripeptides with two arginine residues providing their cationic moieties (FIG. 1). The lipophilic bulk is provided by a modified tryptophane derivate. […] The molecular weights of the SAMPs are in the range of 700-800 Dalton.

[3] = system: Staphylococcus aureus PIA 9; experiment: microbe, parasite or virus in culture; details: planktonic, SA PIA 9
Experimental: as §4, §5

[4] = system: Staphylococcus haemolyticus TUH 51-03; experiment: microbe, parasite or virus in culture; details: planktonic, SH TUH 51-03
Experimental: as §4, §5

[5] = system: Staphylococcus epidermidis RP62A ATCC 35984; experiment: microbe, parasite or virus in culture; details: planktonic, SE RP62A ATCC 35984
Experimental: as §4, §5

[6] = system: Staphylococcus haemolyticus TUH 51-07; experiment: microbe, parasite or virus in culture; details: planktonic, SH TUH 51-07
Experimental: as §4, §5

[7] = system: Staphylococcus epidermidis TUH 08-16; experiment: microbe, parasite or virus in culture; details: planktonic, SE TUH 08-16
Experimental: as §4, §5

[8] = system: S. haemolyticus TUH 51-07 biofilm; experiment: Biofilm imaging, LIVE/DEAD staining and confocal laser scanning microscopy; type: cell-based, Staphylococcus haemolyticus; details: 500 mg/L, 24 h treatment
Experimental: One ml aliquots of MHIIB-diluted overnight culture was used to grow S. haemolyticus TUH 51-07 biofilm on plastic coverslides (Thermanox, cellculture treated on one side, NUNC, Roskilde, Denmark) in 24-well dishes (Falcon 3047, Becton Dickinson, NJ, USA) for 24 h. The coverslides were then washed carefully with PBS, moved to a new plate and treated for 24 h with tetracycline 50 mg/L and 500 mg/L, vancomycin 50 mg/L and 500 mg/L, or Compound A 50 mg/L and 500 mg/L. The coverslides were washed again with […] and stained with a LIVE/DEAD kit (Invitrogen Molecular Probes, Eugene, Oreg., USA) following the manufacturer's instructions. This stain contains SYTO 9 (green fluorescent) and propidium iodide (PI; red fluorescent), both binding to DNA. When used alone, the SYTO 9 generally stains all bacteria in a population; both those with intact and those with damaged membranes. In contrast, PI penetrates only bacteria with damaged membranes, causing a reduction in the SYTO 9 stain green fluorescence when both dyes are present. We examined treated and untreated biofilms with a Leica TCS SP5 (Leica Microsystems CMS Gmbh, Mannheim, Germany) confocal laser scanning microscope (CLSM). Images were obtained using a 63×1.2 NA HCX PL APO water immersion lens. For detection of SYTO9 (green channel), we used the 488 nm line of the argon laser and a detection bandwidth of 495-515 nm. For PI detection (red channel), we used the 561 nm line and a detection bandwidth of 615-660 nm. The two fluorescent-signals were collected sequentially at 400 Hz. Image analyses and export was performed in Leica LAS AF version 1.8.2.

[9] = system: six staphylococcal strains (2 S. epidermidis, 2 S. haemolyticus and 2 S. aureus); experiment: Susceptibility testing under planktonic growth condition, EUCAST breakpoints; type: cell-based; details: all 6 strains; EUCAST criteria
Experimental: The six staphylococcal strains (2 S. epidermidis, 2 S. haemolyticus and 2 S. aureus) used in this study were selected based on their previously known biofilm forming capacity (Table 1).
as §4
We determined the MICs of oxacillin, gentamicin, tetracycline, vancomycin and linezolid using E-test (AB Biodisk, Solna, Sweden) and MICs of rifampicin using broth microdilution assay. Breakpoints were interpreted according to EUCAST criteria. We selected 3 different SAMPs (Compounds A, B and C; Lytix Biopharma, Tromsø, Norway—see FIG. 1) based on previously known antimicrobial activities, and determined their exact MICs with broth microdilution assay. All 3 SAMPs are tripeptides with two arginine residues providing their cationic moieties (FIG. 1). The lipophilic bulk is provided by a modified tryptophane derivate. The difference between the compounds is the size of the C-terminal modification; Compound A has the smallest and Compound B has the largest C-terminal modification (FIG. 1). The molecular weights of the SAMPs are in the range of 700-800 Dalton.

S. aureus PIA 90 biofilm = experiment: Biofilm metabolic activity, Alamar blue reduction; type: cell-based, Staphylococcus aureus
Experimental: as §1, §2, §3

Question: Which “metabolic activity in biofilm assay” value [1] does the source give for `CN(C)[C@@H]1C(=O)C(C(N)=O)=C(O)[C@@]2(O)C(=O)C3=C(O)c4c(O)cccc4[C@@](C)(O)[C@H]3C[C@@H]12` [TET, tetracycline] here?
Answer: hardly any measurable metabolic activity

Question: What about the MIC [2] of the same compound?
Answer: 0.5 µg/mL (≈ 1.13 µM)

Question: What about the MIC [3] of the same compound?
Answer: 0.5 µg/mL (≈ 1.13 µM)

Question: What about the MIC [4] of the same compound?
Answer: 1 µg/mL (≈ 2.25 µM)

Question: What about the MIC [5] of the same compound?
Answer: 0.5 µg/mL (≈ 1.13 µM)

Question: And the MIC [6]?
Answer: 0.5 µg/mL (≈ 1.13 µM)

Question: What about the MIC [7] of the same compound?
Answer: 2 µg/mL (≈ 4.5 µM)

Question: And the “LIVE/DEAD staining of biofilm cells (CLSM)” value [8]?
Answer: a significant part of the cells are still green; also recorded: still contained a significant number of living cells

Question: And the “susceptibility under planktonic growth” value [9]?
Answer: susceptible; also recorded: sensitive

Question: What about the “suppression of metabolic activity (AB reduction)” value (S. aureus PIA 90 biofilm) of the same compound?
Answer: complete suppression
